Reference: US8268990B2, “Compounds” (AstraZeneca AB, priority 2007, dated 2012)

Target: T1, Recombinant human TLR7 (Homo sapiens, UniProt Q9NYK1)
T1 construct: expressed in transfected cells; host or cells: HEK293 cell line stably expressing the pNiFty2-SEAP reporter plasmid; TLR7 in vector pUNO, blasticidin selection
T1 sequence (Q9NYK1 27-1049): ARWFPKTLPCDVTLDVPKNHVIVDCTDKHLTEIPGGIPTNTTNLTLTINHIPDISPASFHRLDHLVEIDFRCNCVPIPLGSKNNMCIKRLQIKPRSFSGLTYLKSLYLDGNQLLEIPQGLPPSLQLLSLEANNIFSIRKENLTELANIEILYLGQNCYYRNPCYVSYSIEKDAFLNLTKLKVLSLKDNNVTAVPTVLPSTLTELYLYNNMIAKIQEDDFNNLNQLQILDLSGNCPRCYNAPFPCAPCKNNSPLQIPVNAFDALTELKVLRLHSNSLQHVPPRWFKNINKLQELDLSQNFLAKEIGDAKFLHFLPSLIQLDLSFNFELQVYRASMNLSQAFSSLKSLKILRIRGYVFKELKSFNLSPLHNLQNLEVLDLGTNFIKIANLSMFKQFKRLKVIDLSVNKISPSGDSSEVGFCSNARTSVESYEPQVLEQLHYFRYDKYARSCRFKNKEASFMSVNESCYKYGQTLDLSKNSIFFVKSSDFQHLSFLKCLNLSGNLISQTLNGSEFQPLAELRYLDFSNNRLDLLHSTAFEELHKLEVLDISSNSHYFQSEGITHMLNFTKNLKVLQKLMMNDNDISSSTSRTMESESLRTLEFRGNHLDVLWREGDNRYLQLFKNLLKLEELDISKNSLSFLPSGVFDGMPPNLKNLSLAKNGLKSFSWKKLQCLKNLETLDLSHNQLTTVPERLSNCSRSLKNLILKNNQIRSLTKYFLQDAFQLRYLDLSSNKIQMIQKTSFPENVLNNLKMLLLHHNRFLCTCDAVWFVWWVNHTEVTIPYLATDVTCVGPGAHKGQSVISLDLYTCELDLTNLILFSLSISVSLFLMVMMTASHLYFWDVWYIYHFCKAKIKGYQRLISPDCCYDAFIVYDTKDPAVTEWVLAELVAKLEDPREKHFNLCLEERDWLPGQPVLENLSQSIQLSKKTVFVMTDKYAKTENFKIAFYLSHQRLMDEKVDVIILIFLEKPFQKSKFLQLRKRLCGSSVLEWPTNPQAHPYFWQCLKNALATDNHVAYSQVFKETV
Assay: Human TLR7 Assay (SEAP reporter);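 further: SEAP driven by an NFkB-responsive composite promoter, pEC50 read at half of each compound's own maximal SEAP induction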
Assay type: cell-based
Details: HEK293 cell line stably expressing human TLR7 and pNiFty2-SEAP reporter; SEAP induction after overnight incubation at 37° C., 0.1% (v/v) DMSO
From the text: Recombinant human TLR7 was stably expressed in a HEK293 cell line already stably expressing the pNiFty2-SEAP reporter plasmid; integration of the reporter gene was maintained by selection with the antibiotic zeocin. The most common variant sequence of human TLR7 (represented by the EMBL sequence AF240467) was cloned into the mammalian cell expression vector pUNO and transfected into this reporter cell-line. Transfectants with stable expression were selected using the antibiotic blasticidin. In this reporter cell-line, expression of secreted alkaline phosphatase (SEAP) is controlled by an NFkB/ELAM-1 composite promoter comprising five NFkB sites combined with the proximal ELAM-1 promoter. TLR signaling leads to the translocation of NFkB and activation of the promoter results in expression of the SEAP gene. TLR7-specific activation was assessed by determining the level of SEAP produced following overnight incubation of the cells at 37° C. with the standard compound in the presence of 0.1% (v/v) dimethylsulfoxide (DMSO). Concentration dependent induction of SEAP production by compounds was expressed as the concentration of compound which produced half of the maximal level of SEAP induction for that compound (pEC50).

EC50 [nM]	Structure (SMILES)
1580	CCCCCNc1nc(N)nc(C)c1CCCN(Cc1cccc(CC(=O)OC)c1)C(=O)CN(C)CCO [Example 10]
2510	CCCCCNc1nc(N)nc(C)c1CCCN(Cc1cccc(CC(=O)OC)c1)S(C)(=O)=O [Example 13, Methyl 2-(3-((N-(3-(2-amino-4-methyl-6-(pentylamino)pyrimidin-5-yl)propyl)methylsulfonamido)methyl)phenyl)acetate]
126	CCCCCNc1nc(N)nc(C)c1Cc1ccc(CC(=O)OCCCN(C)C)cc1 [Example 37, 3-(Dimethylamino)propyl 2-(4-((2-amino-4-methyl-6-(pentylamino)pyrimidin-5-yl)methyl)phenyl)acetate]
100	CCCCCNc1nc(N)nc(C)c1Cc1cc(CC(=O)OC)ccc1O [Example 39, Methyl 2-(3-((2-amino-4-methyl-6-(pentylamino)pyrimidin-5-yl)methyl)-4-hydroxyphenyl)acetate]
200	CCC[C@@H](CCO)Nc1nc(N)nc(C)c1Cc1ccc(CC(=O)OCCCCN(C)C)cc1F [Example 86, (S)-4-(Dimethylamino)butyl 2-(4-((2-amino-4-(1-hydroxyhexan-3-ylamino)-6-methylpyrimidin-5-yl)methyl)-3-fluorophenyl)acetate]
126	CCCCCNc1nc(N)nc(C)c1Cc1ccc(CC(=O)OCCCCN2CCCC2)cc1 [Example 61, 4-(Pyrrolidin-1-yl)butyl 2-(4-((2-amino-4-methyl-6-(pentylamino)pyrimidin-5-yl)methyl)phenyl)acetate]
50.1	CCCC[C@@H](CCO)Nc1nc(N)nc(C)c1Cc1ccc(CC(=O)OC)cc1F [Example 33, (S)-Methyl 2-(4-((2-amino-4-(1-hydroxyheptan-3-ylamino)-6-methylpyrimidin-5-yl)methyl)-3-fluorophenyl)acetate]
2000	CCCCCNc1nc(N)nc(C)c1Cc1cccc(CC(=O)OC)c1 [Example 20, Methyl 2-(3-((2-amino-4-methyl-6-(pentylamino)pyrimidin-5-yl)methyl)phenyl)acetate]
251	CCCCCNc1nc(N)nc(C)c1Cc1ccc(CC(=O)OCCN(C)C)cc1 [Example 36, 2-(Dimethylamino)ethyl 2-(4-((2-amino-4-methyl-6-(pentylamino)pyrimidin-5-yl)methyl)phenyl)acetate]
631	CCCCCNc1nc(N)nc(C)c1CCCN(Cc1ccc(CC(=O)OC)cc1)C(=O)CSC [Example 52, Methyl 2-(4-((N-(3-(2-amino-4-methyl-6-(pentylamino)pyrimidin-5-yl)propyl)-2-(methylthio)acetamido)methyl)phenyl)acetate]
126	CCCCCNc1nc(N)nc(C)c1Cc1ccc(OCC(=O)OC)cc1OC [Example 40, Methyl 2-(4-((2-amino-4-methyl-6-(pentylamino)pyrimidin-5-yl)methyl)-3-methoxyphenoxy)acetate]
25.1	CCC[C@@H](CCO)Nc1nc(N)nc(C)c1Cc1ccc(CC(=O)OCCCCN2CCN(C)CC2)cc1F [Example 87, (S)-4-(4-Methylpiperazin-1-yl)butyl 2-(4-((2-amino-4-(1-hydroxyhexan-3-ylamino)-6-methylpyrimidin-5-yl)methyl)-3-fluorophenyl)acetate]
1000	CCCCCNc1nc(N)nc(C)c1CCCNC(=O)Cc1ccc(CC(=O)OC)cc1 [Example 23, Methyl 2-(4-(2-(3-(2-amino-4-methyl-6-(pentylamino)pyrimidin-5-yl)propylamino)-2-oxoethyl)phenyl)acetate]
1580	CCCCCNc1nc(N)nc(C)c1CCCN(Cc1cccc(CC(=O)OC)c1)C(=O)CCCN(C)C [Example 12, Methyl 2-(3-((N-(3-(2-amino-4-methyl-6-(pentylamino)pyrimidin-5-yl)propyl)-4-(dimethylamino)butanamido)methyl)phenyl)acetate]
25.1	CCCCNc1nc(N)nc(C)c1Cc1ccc(CC(=O)OCCCCN2CCC(N(C)C)CC2)cc1OC [Example 90, 4-(4-(Dimethylamino)piperidin-1-yl)butyl 2-(4-((2-amino-4-(butylamino)-6-methylpyrimidin-5-yl)methyl)-3-methoxyphenyl)acetate]
